How the values were obtained:
[1] = system: MC38; assay: Inhibition of HDAC in mouse MC38 cells assessed as increase in acetyl-histone H3 measured after 24 hrs by Western blot analysis; type: cell-based
[2] = biological target: T1, Histone deacetylase 11 (Homo sapiens, UniProt Q96DB2); assay: Inhibition of HDAC11 (unknown origin) assessed as release of 7-amino-4-methylcoumarin incubated in room temperature for 15 min measured by Spectra max microtitre plate reader
T1 sequence (Q96DB2 whole entry): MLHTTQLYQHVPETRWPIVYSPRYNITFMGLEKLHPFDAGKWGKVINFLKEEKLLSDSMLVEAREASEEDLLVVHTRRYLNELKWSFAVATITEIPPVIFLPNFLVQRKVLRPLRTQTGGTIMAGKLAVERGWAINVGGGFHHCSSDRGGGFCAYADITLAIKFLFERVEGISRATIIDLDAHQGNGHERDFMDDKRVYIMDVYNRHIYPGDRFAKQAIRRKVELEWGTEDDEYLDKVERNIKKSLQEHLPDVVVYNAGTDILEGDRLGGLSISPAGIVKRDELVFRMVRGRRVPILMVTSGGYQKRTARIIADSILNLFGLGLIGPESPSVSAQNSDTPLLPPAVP

[3] = biological target: Histone deacetylase 9 (Homo sapiens, UniProt Q9UKV0); assay: Inhibition of HDAC9 (unknown origin) assessed as release of 7-amino-4-methylcoumarin incubated in room temperature for 15 min measured by Spectra max microtitre plate reader
Chain of Histone deacetylase 9 (Q9UKV0 whole entry): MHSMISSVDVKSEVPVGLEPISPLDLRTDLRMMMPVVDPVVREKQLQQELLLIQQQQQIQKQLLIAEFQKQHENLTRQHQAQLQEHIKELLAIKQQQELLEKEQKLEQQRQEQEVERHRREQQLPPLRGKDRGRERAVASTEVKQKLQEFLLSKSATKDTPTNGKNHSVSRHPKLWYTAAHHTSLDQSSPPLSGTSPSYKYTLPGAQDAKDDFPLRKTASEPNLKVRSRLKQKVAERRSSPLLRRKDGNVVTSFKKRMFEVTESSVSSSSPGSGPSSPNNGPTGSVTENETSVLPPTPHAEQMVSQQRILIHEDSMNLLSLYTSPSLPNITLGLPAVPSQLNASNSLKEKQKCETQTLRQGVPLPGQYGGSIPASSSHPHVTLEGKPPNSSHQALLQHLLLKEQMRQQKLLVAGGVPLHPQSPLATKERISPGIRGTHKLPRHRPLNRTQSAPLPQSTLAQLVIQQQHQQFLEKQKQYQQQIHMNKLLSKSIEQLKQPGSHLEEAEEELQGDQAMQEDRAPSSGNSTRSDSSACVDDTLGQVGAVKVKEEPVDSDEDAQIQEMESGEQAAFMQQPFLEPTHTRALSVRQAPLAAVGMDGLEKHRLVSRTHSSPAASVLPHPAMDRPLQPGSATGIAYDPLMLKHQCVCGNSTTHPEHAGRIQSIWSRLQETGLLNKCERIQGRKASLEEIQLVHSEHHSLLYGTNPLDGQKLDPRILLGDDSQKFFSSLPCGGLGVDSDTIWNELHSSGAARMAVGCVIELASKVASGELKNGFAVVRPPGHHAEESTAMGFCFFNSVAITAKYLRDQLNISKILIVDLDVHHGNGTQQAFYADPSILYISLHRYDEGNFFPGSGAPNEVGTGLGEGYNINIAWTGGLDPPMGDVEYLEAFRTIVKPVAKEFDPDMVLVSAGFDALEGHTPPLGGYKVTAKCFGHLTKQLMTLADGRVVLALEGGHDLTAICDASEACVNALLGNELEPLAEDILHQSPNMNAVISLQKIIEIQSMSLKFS

[4] = biological target: Histone deacetylase 4 (Homo sapiens, UniProt P56524); assay: Inhibition of HDAC4 (unknown origin) assessed as release of 7-amino-4-methylcoumarin incubated in room temperature for 15 min measured by Spectra max microtitre plate reader
Chain of Histone deacetylase 4 (P56524 whole entry): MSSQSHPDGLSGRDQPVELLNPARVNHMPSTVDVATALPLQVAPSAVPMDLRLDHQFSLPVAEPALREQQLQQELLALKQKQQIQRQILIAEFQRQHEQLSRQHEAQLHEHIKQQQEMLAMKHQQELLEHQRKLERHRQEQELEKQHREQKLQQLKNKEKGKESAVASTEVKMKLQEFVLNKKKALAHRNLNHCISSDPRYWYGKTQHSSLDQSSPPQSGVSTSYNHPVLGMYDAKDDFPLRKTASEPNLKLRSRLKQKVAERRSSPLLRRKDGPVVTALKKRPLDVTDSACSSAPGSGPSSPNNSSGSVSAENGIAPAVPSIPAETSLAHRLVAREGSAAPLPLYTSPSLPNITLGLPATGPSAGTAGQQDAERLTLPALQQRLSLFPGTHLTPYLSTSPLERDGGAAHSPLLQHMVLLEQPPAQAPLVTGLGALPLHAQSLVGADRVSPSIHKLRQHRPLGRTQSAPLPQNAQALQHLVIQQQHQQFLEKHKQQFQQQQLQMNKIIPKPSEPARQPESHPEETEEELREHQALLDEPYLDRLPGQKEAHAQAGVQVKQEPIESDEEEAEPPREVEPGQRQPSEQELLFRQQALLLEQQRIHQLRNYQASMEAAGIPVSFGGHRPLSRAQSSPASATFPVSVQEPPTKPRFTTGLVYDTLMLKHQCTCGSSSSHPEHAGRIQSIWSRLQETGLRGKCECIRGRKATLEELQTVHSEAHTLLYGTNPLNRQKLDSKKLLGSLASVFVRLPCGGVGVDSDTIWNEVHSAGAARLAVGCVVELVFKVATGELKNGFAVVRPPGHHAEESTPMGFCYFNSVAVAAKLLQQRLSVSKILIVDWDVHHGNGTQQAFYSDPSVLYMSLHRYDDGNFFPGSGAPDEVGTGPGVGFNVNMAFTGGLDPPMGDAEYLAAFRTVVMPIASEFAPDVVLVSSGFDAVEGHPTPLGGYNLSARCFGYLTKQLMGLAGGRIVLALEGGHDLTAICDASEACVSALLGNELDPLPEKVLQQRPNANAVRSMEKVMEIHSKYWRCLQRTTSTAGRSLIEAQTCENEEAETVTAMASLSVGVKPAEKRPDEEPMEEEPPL

[5] = biological target: T2, Adenosine receptor A3 (Homo sapiens, UniProt P0DMS8); assay: Displacement of [3H]DPCPX from human adenosine A3 receptor membrane (unknown origin) measured after 60 mins by scintillation counting analysis; type: cell membranes
T2 sequence (P0DMS8 whole entry): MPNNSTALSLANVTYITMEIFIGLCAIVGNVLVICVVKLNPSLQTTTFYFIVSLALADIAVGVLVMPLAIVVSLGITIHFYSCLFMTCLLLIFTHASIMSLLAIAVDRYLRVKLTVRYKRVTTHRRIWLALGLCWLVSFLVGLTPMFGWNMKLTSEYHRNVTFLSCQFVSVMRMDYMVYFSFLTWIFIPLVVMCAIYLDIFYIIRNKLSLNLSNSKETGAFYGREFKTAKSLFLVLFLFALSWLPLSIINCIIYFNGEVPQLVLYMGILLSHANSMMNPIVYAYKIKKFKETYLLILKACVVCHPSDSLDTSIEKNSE

[6] = biological target: T3, Adenosine receptor A2b (Homo sapiens, UniProt P29275); assay: Displacement of [3H]DPCPX from human adenosine A2B receptor membrane (unknown origin) measured after 60 mins by scintillation counting analysis; type: cell membranes
T3 sequence (P29275 whole entry): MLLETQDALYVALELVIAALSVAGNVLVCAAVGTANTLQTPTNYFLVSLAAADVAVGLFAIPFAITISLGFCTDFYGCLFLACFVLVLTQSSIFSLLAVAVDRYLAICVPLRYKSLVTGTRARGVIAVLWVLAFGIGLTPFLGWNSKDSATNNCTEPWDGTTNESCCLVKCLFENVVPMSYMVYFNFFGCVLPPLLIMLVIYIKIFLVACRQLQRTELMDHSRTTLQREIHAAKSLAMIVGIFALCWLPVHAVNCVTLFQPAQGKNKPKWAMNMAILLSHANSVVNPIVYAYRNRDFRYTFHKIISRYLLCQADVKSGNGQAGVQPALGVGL

[7] = biological target: T4, Adenosine receptor A1 (Homo sapiens, UniProt P30542); assay: Displacement of [3H]DPCPX from human adenosine A1 receptor membrane (unknown origin) measured after 60 mins by scintillation counting analysis; type: cell membranes
T4 sequence (P30542 whole entry): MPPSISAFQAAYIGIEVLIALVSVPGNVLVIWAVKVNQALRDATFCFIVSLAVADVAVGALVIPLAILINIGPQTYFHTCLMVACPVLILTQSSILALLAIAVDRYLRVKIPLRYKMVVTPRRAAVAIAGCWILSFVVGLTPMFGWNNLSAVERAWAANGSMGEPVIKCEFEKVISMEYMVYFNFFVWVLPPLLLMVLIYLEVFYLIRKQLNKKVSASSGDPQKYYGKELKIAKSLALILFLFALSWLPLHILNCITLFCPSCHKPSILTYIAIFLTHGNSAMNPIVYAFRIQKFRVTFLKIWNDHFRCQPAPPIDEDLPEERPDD

[8] = Clearance in ICR mouse at 5 mg/kg, iv up to 24 hrs by LC-MS/MS analysis; type: ADME, organism-based; settings: in vivo
[9] = AUC (0 to […]) in ICR mouse at 5 mg/kg, iv up to 24 hrs by LC-MS/MS analysis; type: ADME, organism-based; design: route intravenous, dose 5 mg/kg, time <=24; settings: in vivo
[10] = Half life in ICR mouse at 20 mg/kg, ip up to 24 hrs by LC-MS/MS analysis; type: ADME, organism-based; settings: in vivo
[11] = AUC (0 to infinity) in ICR mouse at 20 mg/kg, po by LC-MS/MS analysis; type: ADME, organism-based; design: time infinity, route oral, dose 20 mg/kg; settings: in vivo
[12] = AUC (0 to t) in ICR mouse at 20 mg/kg, po by LC-MS/MS analysis; type: ADME, organism-based; design: dose 20 mg/kg; settings: in vivo
[13] = Cmax in ICR mouse at 20 mg/kg, po by LC-MS/MS analysis; type: ADME, organism-based; design: route oral, dose 20 mg/kg; settings: in vivo
[14] = Tmax in ICR mouse at 20 mg/kg, po by LC-MS/MS analysis; type: ADME, organism-based; settings: in vivo

IC50 [2]: > 10 µM
IC50 [3]: > 10 µM
IC50 [4]: > 10 µM
Ki [5]: > 10 µM
Ki [6]: 0.35 µM
Ki [7]: 0.0712 µM
clearance [8]: 59 mL/min/kg
AUC(0-t) [9]: 1460 ng·h/mL
half-life [10]: 1.89 h
AUC(0-inf) [11]: 1810 ng·h/mL
AUC(0-t) [12]: 1770 ng·h/mL
Cmax [13]: 1590 ng/mL
Tmax [14]: 0.25 h
SMILES: Nc1ccccc1NC(=O)c1ccc(CCn2ncc3c2nc(N)n2nc(-c4ccco4)nc32)cc1
Activity [1]: Dose-Dependent Effect

From ChEMBL document CHEMBL5030563, “Structure-Based Design of Dual-Acting Compounds Targeting Adenosine A2A Receptor and Histone Deacetylase as Novel Tumor Immunotherapeutic Agents” (J Med Chem, 2021)
